# Where two headings read alike, the source gives them in different places.
# Assays:
# [1] = type: in vivo; conditions: rats, oral route, equimolar doses
# anaesthesized cats = experiment: Pharmacodynamics in anaesthesized cats; type: in vivo; conditions: up to 50 mg/kg intravenously
# Stability to moisture = type: physicochemical; conditions: open vials, 90% relative humidity, a month
# Description: Samples of TBPG and MPG have been maintained in open vials at room temperature under conditions of 90% relative humidity and at 50° C. always with 90% relative humidity. After a month of exposure, the following observations have been made.
# [2] = biological target: T1, glutathione peroxidase (GSHP) (Homo sapiens, UniProt P07203); experiment: Action on the glutathione peroxidase (GSHP); type: biochemical; conditions: system glutathione/NADPH/GSH-reductase/cumene hydroperoxide; read-out: apparent Ki
# T1 sequence (P07203 1-203): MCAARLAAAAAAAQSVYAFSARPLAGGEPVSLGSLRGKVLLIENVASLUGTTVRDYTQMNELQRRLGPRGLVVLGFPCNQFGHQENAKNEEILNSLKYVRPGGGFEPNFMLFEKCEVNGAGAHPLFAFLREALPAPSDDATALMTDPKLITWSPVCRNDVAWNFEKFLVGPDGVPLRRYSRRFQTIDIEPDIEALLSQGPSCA
# Source text: The experiment has been carried out for the purpose of determining the inhibitory activity if any of TBPG with respect to GSHP, an enzyme well known connected with phlogistic processes.
# The results have been obtained using the system glutathione/NADPH/GSH-reductase/cumene hydroperoxide and have shown that TBPG is capable of exerting an inhibitory activity on GSHP with an apparent Ki 5.4.10^-3 molar.
# rats [3] = experiment: Protective activity of the liver in the intoxication caused by CCl4 (BSF elimination); type: in vivo; conditions: rats intoxicated with CCl4; 200 and 400 mg/kg orally, 14 days; BSF 10 mg/kg i.v. on day 15; proportionate to the dosage
# Description: The animals, that is rats, were intoxicated with CCl4 for a period of seven days. They were treated during the same days and for a subsequent period of seven days with TBPG in the dose of 200 and 400 mg/kg orally and with α-mercaptopropionylglycine in the dose of 90 and 180 mg/kg orally. On the fifteenth day, the rats have been treated with BSF in the amount of 10 mg/kg intravenously.
# rats [4] = experiment: Action on the period of sleep induced by barbiturates; type: in vivo; conditions: rats intoxicated with CCl4; 200 and 400 mg/kg orally, two days; clear correlation between dosage and effect
# Description: The activity of TBPG administered for two days in the dose of 200 and 400 mg/kg orally, has been determined on the basis of the reduction of the period of sleep induced by Nembutal on rats intoxicated with CCl4.
# rabbits [5] = experiment: Secretory activity in rabbits (bronchial secretion); type: in vivo
# Source text: This activity has been determined using the method described by E. M. Boyd and C. F. Boyd, modified by P. C. Braga, et al described in Bronchial Hypersecretion, 1973. This activity has been determined every hour for a period of four hours by measuring the amount of bronchial secretion derived from the laryngo-tracheal organs and from the tracheo-bronchial organs of rabbits.
# [6] = system: albino Sprague-Dawley rats; experiment: Toxicity in the fetus, rats; type: in vivo; conditions: daily oral and subcutaneous, 250 and 500 mg/kg, four weeks prior to coupling and twenty days of gestation
# Source text: (§1) Toxicity in the fetus of TBPG has been studied in albino Sprague-Dawley rats and in New Zealand rabbits. In the case of rats both male and female, the treatment has been initiated four weeks prior to coupling and then has been continued only in the females during the twenty days of gestation.
# (§2) In the case of female rabbits, the treatment has been carried out during the twenty eight days of gestation.
# Rats [7] = experiment: Acute toxicity in rats; type: in vivo; conditions: 20 tested
# Description: (§3) The acute toxicity has been studied with Swiss albino rats and Wistar albino rats and in both instances, animals of both sexes have been used. The product is administered orally and endoperitoneally and the period of observation is ten days after the initial treatment. The values of DL50 by the statistical method with confidential limits up to 95% are calculated by means of the method of probits reported in Table I. Probits is a statistical unit of probable deviation used in biological assays; equal to the normal equivalent deviate increased by 5, used to make all normal equivalent deviation values positive.
# Acute toxicity in rats = type: in vivo; conditions: rat, in vivo; for mortality at 240 h: read-out: % Death; for LD50 at 240 h: 10 days observation, probits, read-out: DL50 mg/kg (Confidential Limits)
# Description: as §3
# rabbits [8] = experiment: Subchronic toxicity, rectal route; type: in vivo; conditions: eight consecutive weeks
# rats [9] = experiment: Regenerative action in partial hepatectomy; type: in vivo; conditions: partial hepatectomy (70% excision), 200 and 400 mg/kg oral, six days
# rats [10] = experiment: Bronchosecretolithic activity in rats (sodium fluorescine method); type: in vivo; conditions: 300 mg/kg intraperitoneally
# Description: The secretolithic activity of TBPG has been determined in comparison to α-mercaptopropionylglycine by administering 300 mg/kg of the substance intraperitonally and comparing with 135 mg/kg of α-mercaptopropionylglycine administered also intraperitoneally. The doses are equimolar. The method is based on the use of sodium fluorescine described by H. M. Mawatari (Experimental Studies on the Expectorant Action of Several Drugs, Kogoshima Daigakeu Igakeu Zasshi 27, 561, 1976).
# New Zealand rabbits = experiment: Toxicity in the fetus, rabbits; type: in vivo; conditions: female rabbits, daily oral and subcutaneous, 250 and 500 mg/kg, twenty eight days of gestation
# Source text: as §1, §2
# [11] = Stability in reducing medium (SO2); type: physicochemical; conditions: 25 mg/ml, sodium bisulfite calculated as SO2, refluxed three hours
# Description: In the presence of SO2 --solutions containing 25 mg/ml of TBPG and MPG respectively in the presence of sodium bisulfite calculated as SO2 are warmed and refluxed for a period of three hours.
# [12] = with respect to the control animals
smiles,measurement,setting,value
"COc1cc(C(=O)SC(C)C(=O)NCC(=O)O)cc(OC)c1OC (stereo not drawn) [TBPG, α-(3,4,5-trimethoxybenzoyl)thiopropionylglycine]",concentration in the kidney,[1],high concentrations in the kidney
same,distribution in the organs,[1],sufficiently homogenous
same,content in the lungs with respect to α-mercaptopropionylglycine,[1]; statistically significant,substantially higher content in the lungs
same,arterial pressure,anaesthesized cats,low and temporary reduction
same,"cardiac frequency, respiratory dynamics and electrocardiogram",anaesthesized cats,without any effect
same,tolerance,anaesthesized cats,very high tolerance
same,stability to moisture,Stability to moisture; 50° C.,"slight yellow color, but no degradation products"
same,stability to moisture,Stability to moisture; room temperature (t.a.),no decomposition
same,Ki,[2],5.4 mM
same,elimination of BSF (hematic concentrations),rats [3],favors the elimination of BSF in a statistically significant manner
same,reduction of the period of sleep induced by Nembutal,rats [4],very substantial
same,laryngo-bronchial secretion,"rabbits [5]; oral, rectal or inhalation, 50 and 200 mg/kg, every hour for four hours",increase in a significant manner and proportionally to the dosage
same,laryngo-tracheal secretion,rabbits [5]; [12],equal to the activity of α-mercaptopropionylglycine
same,tracheo-bronchial secretion,rabbits [5]; [12],more substantial activity
same,"toxicity in the fetus (deformation, number and weight of living offspring)",[6],has not induced any deformation in the fetus and has not affected the number and the weight of the living offspring
same,No. of Animals Dead,"Rats [7]; i.p., 1500 mg/kg",0
same,No. of Animals Dead,"Rats [7]; i.p., 2000 mg/kg",6
same,No. of Animals Dead,"Rats [7]; i.p., 2500 mg/kg",9
same,No. of Animals Dead,"Rats [7]; i.p., 3000 mg/kg",14
same,No. of Animals Dead,"Rats [7]; i.p., 3500 mg/kg",17
same,No. of Animals Dead,"Rats [7]; orally, 3000 mg/kg",1
same,No. of Animals Dead,"Rats [7]; orally, 4000 mg/kg",6
same,No. of Animals Dead,"Rats [7]; orally, 5000 mg/kg",9
same,No. of Animals Dead,"Rats [7]; orally, 6000 mg/kg",12
same,No. of Animals Dead,"Rats [7]; orally, 7000 mg/kg",17
same,mortality at 240 h,"Acute toxicity in rats; ip, 1500 mg/kg",0%
same,mortality at 240 h,"Acute toxicity in rats; ip, 2000 mg/kg",30%
same,mortality at 240 h,"Acute toxicity in rats; ip, 2500 mg/kg",45%
same,mortality at 240 h,"Acute toxicity in rats; ip, 3000 mg/kg",70%
same,mortality at 240 h,"Acute toxicity in rats; ip, 3500 mg/kg",85%
same,LD50 at 240 h,"Acute toxicity in rats; ip, 95% limits (2483-2887)",2670 mg/kg
same,mortality at 240 h,"Acute toxicity in rats; po, orally, 3000 mg/kg",5%
same,mortality at 240 h,"Acute toxicity in rats; po, orally, 4000 mg/kg",30%
same,mortality at 240 h,"Acute toxicity in rats; po, orally, 5000 mg/kg",45%
same,mortality at 240 h,"Acute toxicity in rats; po, orally, 6000 mg/kg",60%
same,mortality at 240 h,"Acute toxicity in rats; po, orally, 7000 mg/kg",85%
same,LD50 at 240 h,"Acute toxicity in rats; po, orally, 95% limits (4879-5873)",5230 mg/kg
same,"hematochemical data, hepatic and renal functions, autopsies and macro/microscopic controls of the main organs",rabbits [8]; 400 mg/kg per day,have not shown any variations from the normal
same,behavior and body growth of the animals,rabbits [8]; two suppositories per day equal to 400 mg/kg,has not caused any irregularities
same,regeneration of the hepatic tissue,rats [9],favoring the regeneration of the hepatic tissue in statistically significant manner
same,bronchosecretolithic activity,rats [10],34.4%
same,"toxicity in the fetus (deformation, number and weight of living offspring)",New Zealand rabbits,has not induced any deformation in the fetus and has not affected the number and the weight of the living offspring
same,stability in reducing medium,[11],undergoes no physico-chemical change or organoleptic change
